Source: patent publication US10538487B2, “Sulfonylureas and related compounds and use of same” (priority 2015, dated 2020)
Like-named read-outs stand apart in the source and are kept apart here.

Experiments:
NLRP3 inflammasome [1] = biological target: NLRP3 inflammasome (Mus musculus, UniProt Q8R4B8); test: Inhibition of IL-1β release, NLRP3 inflammasome activation assay in BMDM; type: cell-based
Experimental: The following assays can be used to determine inhibitory activity of test compounds on the NLRP3 inflammasome using common stimuli such as adenosine triphosphate, nigericin, LeuLeu-OMe or monosodium urate crystals (MSU).
Mouse bone marrow-derived macrophages (BMDM) were derived from bone marrow progenitors isolated from the femurs and tibias of C57BL/6 mice.
BMDM are seeded at 1×10^5/ml. The following day the overnight medium is replaced and cells are stimulated with Ultrapure lipopolysaccharide from Escherichia coli K12 strain (InvivoGen) for 3 h. Medium is removed and replaced with serum free medium (SFM) containing test compound 30 min prior to NLRP3 stimulation. […] ATP can be sourced from Sigma Aldrich, nigericin and MSU from Invivogen and LeuLeu-Ome from Chem-Impex International.
For ELISA and cell death assays cells are seeded in 96 well plates. Supernatants are removed and analysed using ELISA kits according to the manufacturer's instructions (DuoSet® R&D Systems, ReadySetGo!® eBioscience, BD OptEIA™, or Perkin Elmer AlphaLISA®). Cell death is assessed by measurement of LDH release relative to a 100% cell lysis control using the CytoTox96® non-radioactive cytotoxicity assay (Promega).

NLRP3 inflammasome [2] = biological target: NLRP3 inflammasome (Homo sapiens, UniProt Q96P20); test: Inhibition of IL-1β release, NLRP3 inflammasome activation assay in HMDM; type: cell-based
Chain of NLRP3 inflammasome (Homo sapiens, UniProt Q96P20) (Q96P20 whole entry): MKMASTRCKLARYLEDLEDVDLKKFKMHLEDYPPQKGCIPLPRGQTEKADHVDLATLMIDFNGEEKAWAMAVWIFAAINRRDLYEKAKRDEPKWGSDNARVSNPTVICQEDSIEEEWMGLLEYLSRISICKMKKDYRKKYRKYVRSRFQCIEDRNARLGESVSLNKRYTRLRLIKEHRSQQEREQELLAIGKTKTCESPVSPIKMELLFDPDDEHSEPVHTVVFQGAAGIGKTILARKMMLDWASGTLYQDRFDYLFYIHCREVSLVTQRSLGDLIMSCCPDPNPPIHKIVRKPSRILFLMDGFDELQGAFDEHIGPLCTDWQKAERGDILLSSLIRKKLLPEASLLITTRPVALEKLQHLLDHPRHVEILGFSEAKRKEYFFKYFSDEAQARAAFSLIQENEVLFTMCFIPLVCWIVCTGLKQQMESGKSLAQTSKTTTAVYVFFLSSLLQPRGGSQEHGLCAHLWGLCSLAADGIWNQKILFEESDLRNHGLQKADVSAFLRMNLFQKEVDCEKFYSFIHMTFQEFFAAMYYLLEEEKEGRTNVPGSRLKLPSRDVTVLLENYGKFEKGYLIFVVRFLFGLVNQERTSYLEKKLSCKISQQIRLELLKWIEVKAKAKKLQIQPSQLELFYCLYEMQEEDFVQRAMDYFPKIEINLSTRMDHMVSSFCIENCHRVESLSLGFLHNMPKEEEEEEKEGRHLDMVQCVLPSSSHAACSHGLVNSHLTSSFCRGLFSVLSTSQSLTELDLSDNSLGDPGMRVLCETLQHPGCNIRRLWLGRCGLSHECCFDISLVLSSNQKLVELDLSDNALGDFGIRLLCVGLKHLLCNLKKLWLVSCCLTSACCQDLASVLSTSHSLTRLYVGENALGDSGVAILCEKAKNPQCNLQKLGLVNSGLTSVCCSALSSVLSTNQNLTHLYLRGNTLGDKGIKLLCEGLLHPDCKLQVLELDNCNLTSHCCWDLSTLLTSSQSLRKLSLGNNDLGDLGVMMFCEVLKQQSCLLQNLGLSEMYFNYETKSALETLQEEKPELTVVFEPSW
In short: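 Primary human monocyte-derived macrophages from CD14+ buffy-coat monocytes, seeded at 1×10^5/ml. Compound added in serum-free medium 30 min before NLRP3 stimulation (ATP, nigericin, LeuLeu-OMe or MSU). Cytokine in supernatants measured by ELISA or AlphaLISA; cell death by LDH release relative to full lysis.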

[3] = inhibition of IL-1β release, class symbols, read-out: Avg. IL-1β IC50 Murine BMDM
[4] = inhibition of IL-1β release, class symbols, read-out: Avg. IL-1β IC50 HMDM
[5] = select compounds of the first aspect (Table 10), read-out: BMDM IC50 vs NLRP3
[6] = select compounds of the first aspect (Table 10), read-out: HMDM IC50 vs NLRP3
[7] = inhibition of IL-1β release, numeric bounds, read-out: Avg. IL-1β IC50 Murine BMDM
[8] = commercial compounds (Table 9), read-out: BMDM IC50 vs NLRP3
[9] = commercial compounds (Table 9), read-out: HMDM IC50 vs NLRP3

Chain of NLRP3 inflammasome (Mus musculus, UniProt Q8R4B8) (Q8R4B8 whole entry): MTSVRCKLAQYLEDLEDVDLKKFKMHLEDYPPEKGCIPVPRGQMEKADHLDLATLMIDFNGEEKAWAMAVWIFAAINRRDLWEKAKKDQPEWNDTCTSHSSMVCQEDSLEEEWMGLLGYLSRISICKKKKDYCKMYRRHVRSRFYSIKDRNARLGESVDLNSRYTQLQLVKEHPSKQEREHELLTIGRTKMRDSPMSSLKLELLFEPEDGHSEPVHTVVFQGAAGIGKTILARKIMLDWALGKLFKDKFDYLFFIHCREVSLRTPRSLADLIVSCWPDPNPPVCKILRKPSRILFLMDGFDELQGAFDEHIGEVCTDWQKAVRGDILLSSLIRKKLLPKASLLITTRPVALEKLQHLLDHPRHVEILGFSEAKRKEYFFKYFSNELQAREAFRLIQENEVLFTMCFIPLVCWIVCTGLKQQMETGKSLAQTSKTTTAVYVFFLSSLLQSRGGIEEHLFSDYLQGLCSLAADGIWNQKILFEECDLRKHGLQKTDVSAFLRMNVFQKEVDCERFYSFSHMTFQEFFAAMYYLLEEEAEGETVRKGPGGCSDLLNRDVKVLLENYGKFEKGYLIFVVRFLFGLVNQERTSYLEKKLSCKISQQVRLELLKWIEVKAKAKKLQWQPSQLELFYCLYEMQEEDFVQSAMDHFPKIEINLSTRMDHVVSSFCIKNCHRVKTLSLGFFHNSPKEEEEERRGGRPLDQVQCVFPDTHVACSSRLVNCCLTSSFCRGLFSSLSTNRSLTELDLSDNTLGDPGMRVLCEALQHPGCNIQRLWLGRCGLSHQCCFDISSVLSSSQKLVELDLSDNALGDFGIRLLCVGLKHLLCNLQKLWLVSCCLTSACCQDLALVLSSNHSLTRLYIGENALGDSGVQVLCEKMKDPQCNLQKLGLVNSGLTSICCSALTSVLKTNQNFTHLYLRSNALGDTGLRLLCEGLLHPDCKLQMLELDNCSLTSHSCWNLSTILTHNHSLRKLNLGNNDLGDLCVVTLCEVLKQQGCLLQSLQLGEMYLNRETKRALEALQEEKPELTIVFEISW

Structure (SMILES): COc1ccc2c(c1NC(=O)NS(=O)(=O)c1cc(C(C)(C)O)co1)CCC2 [4-(2-hydroxypropan-2-yl)-N-((5-methoxy-2,3-dihydro-1H-inden-4-yl)carbamoyl)furan-2-sulfonamide]
- IC50 (NLRP3 inflammasome [1]; [3]): < 1 µM
- IC50 (NLRP3 inflammasome [2]; [4]): < 1 µM

Structure (SMILES): Nc1ccc(S(=O)(=O)NC(=O)Nc2c3c(cc4c2CCC4)CCC3)cc1 [drawing 365]
- IC50 (NLRP3 inflammasome [1]; [5]): 0.014 µM
- IC50 (NLRP3 inflammasome [2]; [6]): 0.31 µM

Structure (SMILES): COc1cc(Cl)cc(OC)c1NC(=O)NS(=O)(=O)c1ccn(C(C)C)n1 [N-((4-chloro-2,6-dimethoxyphenyl)carbamoyl)-1-isopropyl-1H-pyrazole-3-sulfonamide]
- IC50 (NLRP3 inflammasome [1]; [7]): > 10 µM
- IC50 (NLRP3 inflammasome [2]; [4]): < 50 µM

Structure (SMILES): O=C(Nc1c2c(cc3c1CCC3)CCC2)NS(=O)(=O)c1ccc2c(c1)CCC2 [N-((1,2,3,5,6,7-hexahydro-s-indacen-4-yl)carbamoyl)-2,3-dihydro-1H-indene-5-sulfonamide]
- IC50 (NLRP3 inflammasome [1]; [3]): < 0.1 µM
- IC50 (NLRP3 inflammasome [2]; [4]): < 10 µM

Structure (SMILES): O=C(Nc1c2c(cc3c1CCC3)CCC2)NS(=O)(=O)c1ccc(CCNc2ccc([N+](=O)[O-])c3nonc23)cc1 [N-((1,2,3,5,6,7-hexahydro-s-indacen-4-yl)carbamoyl)-4-(2-((7-nitrobenzo[c][1,2,5]oxadiazol-4-yl)amino)ethyl)benzenesulfonamide]
- IC50 (NLRP3 inflammasome [1]; [3]): < 1 µM
- IC50 (NLRP3 inflammasome [2]; [4]): < 1 µM

Structure (SMILES): CC(C)n1ccc(S(=O)(=O)NC(=O)Nc2c(C3CC3)cc(Cl)cc2C2CC2)n1 [N-((4-chloro-2,6-dicyclopropylphenyl)carbamoyl)-1-isopropyl-1H-pyrazole-3-sulfonamide]
- IC50 (NLRP3 inflammasome [1]; [3]): < 1 µM
- IC50 (NLRP3 inflammasome [2]; [4]): < 1 µM

Structure (SMILES): Cc1cc(Cl)cc(C(F)(F)F)c1NC(=O)NS(=O)(=O)c1ccn(C(C)C)n1 [N-((4-chloro-2-methyl-6-(trifluoromethyl)phenyl)carbamoyl)-1-isopropyl-1H-pyrazole-3-sulfonamide]
- IC50 (NLRP3 inflammasome [1]; [7]): > 10 µM
- IC50 (NLRP3 inflammasome [2]; [4]): < 10 µM

Structure (SMILES): CC(C)n1cc(S(=O)(=O)NC(=O)Nc2c3c(cc4c2CCC4)CCC3)nn1 [N-((1,2,3,5,6,7-hexahydro-s-indacen-4-yl)carbamoyl)-1-isopropyl-1H-1,2,3-triazole-4-sulfonamide]
- IC50 (NLRP3 inflammasome [1]; [3]): < 1 µM
- IC50 (NLRP3 inflammasome [2]; [4]): < 0.1 µM

Structure (SMILES): Cc1ccc(S(=O)(=O)NC(=O)NN2CC3CCCC3C2)cc1 (stereo not shown) [Gliclazide, reference compound]
- IC50 (NLRP3 inflammasome [1]; [8]): > 200 µM
- IC50 (NLRP3 inflammasome [2]; [9]): > 200 µM

Structure (SMILES): CC(C)(O)c1coc(S(=O)(=O)NC(=O)Nc2c3c(c(Cl)c4c2CCC4)CCC3)c1 [N-((8-chloro-1,2,3,5,6,7-hexahydro-s-indacen-4-yl)carbamoyl)-4-(2-hydroxypropan-2-yl)furan-2-sulfonamide]
- IC50 (NLRP3 inflammasome [1]; [3]): < 0.1 µM
- IC50 (NLRP3 inflammasome [2]; [4]): < 0.1 µM

Structure (SMILES): O=C(Nc1ccc(Cl)cc1)NS(=O)(=O)c1ccc2c(c1)CCC2 [N-((4-chlorophenyl)carbamoyl)-2,3-dihydro-1H-indene-5-sulfonamide]
- IC50 (NLRP3 inflammasome [1]; [7]): > 10 µM
- IC50 (NLRP3 inflammasome [2]; inhibition of IL-1β release, numeric bounds, read-out: Avg. IL-1β IC50 HMDM): > 100 µM

Structure (SMILES): O=C(Nc1c2c(cc3c1CCC3)CCC2)NS(=O)(=O)c1cccc(OC(F)(F)F)c1 [N-((1,2,3,5,6,7-hexahydro-s-indacen-4-yl)carbamoyl)-3-(trifluoromethoxy)benzenesulfonamide]
- IC50 (NLRP3 inflammasome [1]; [3]): < 1 µM
- IC50 (NLRP3 inflammasome [2]; [4]): < 1 µM

Structure (SMILES): NS(=O)(=O)c1cccc(S(=O)(=O)NC(=O)Nc2c3c(cc4c2CCC4)CCC3)c1 [N^1-(1,2,3,5,6,7-Hexahydros-indacen-4-ylcarbamoyl)benzene-1,3-disulfonamide]
- IC50 (NLRP3 inflammasome [1]; [3]): < 0.1 µM
- IC50 (NLRP3 inflammasome [2]; [4]): < 0.1 µM

Structure (SMILES): COc1cccc(S(=O)(=O)NC(=O)Nc2c3c(cc4c2CCC4)CCC3)c1 [N-(1,2,3,5,6,7-hexahydros-indacen-4-ylcarbamoyl)-3-methoxybenzenesulfonamide]
- IC50 (NLRP3 inflammasome [1]; [3]): < 0.1 µM
- IC50 (NLRP3 inflammasome [2]; [4]): < 0.1 µM

Structure (SMILES): O=C(Nc1ccc(Cl)cc1)NS(=O)(=O)c1ccc2c(c1)CCC2 [Sulofenur, reference compound]
- IC50 (NLRP3 inflammasome [1]; [8]): > 10 µM
- IC50 (NLRP3 inflammasome [2]; [9]): > 100 µM

Structure (SMILES): Cc1cc(C(=O)NCCc2ccc(S(=O)(=O)NC(=O)Nc3c4c(cc5c3CCC5)CCC4)cc2)no1 [N-(4-(N-((1,2,3,5,6,7-hexahydro-s-indacen-4-yl)carbamoyl)sulfamoyl)phenethyl)-5-methylisoxazole-3-carboxamide]
- IC50 (NLRP3 inflammasome [1]; [3]): < 1 µM
- IC50 (NLRP3 inflammasome [2]; [4]): < 1 µM

Structure (SMILES): O=C(Nc1ccc2ncccc2c1)NS(=O)(=O)c1cccc(C2(C(F)(F)F)N=N2)c1 [N-(quinolin-6-ylcarbamoyl)-3-(3-(trifluoromethyl)-3H-diazirin-3-yl)benzenesulfonamide]
- IC50 (NLRP3 inflammasome [1]; inhibition of IL-1β release, uM, read-out: Avg. IL-1β IC50 Murine BMDM): > 50 µM
- IC50 (NLRP3 inflammasome [2]; inhibition of IL-1β release, uM, read-out: Avg. IL-1β IC50 HMDM): > 50 µM

Structure (SMILES): CCC1=C(C)CN(C(=O)NCCc2ccc(S(=O)(=O)NC(=O)Nc3c4c(cc5c3CCC5)CCC4)cc2)C1=O [drawing 360]
- IC50 (NLRP3 inflammasome [1]; [5]): 0.22 µM
- IC50 (NLRP3 inflammasome [2]; [6]): 0.65 µM

Structure (SMILES): Cc1cnc(C(=O)NCCc2ccc(S(=O)(=O)NC(=O)NC3CCCCC3)cc2)cn1 [Glipizide, reference compound]
- IC50 (NLRP3 inflammasome [1]; [8]): > 200 µM
- IC50 (NLRP3 inflammasome [2]; [9]): > 200 µM

Structure (SMILES): CCCCNC(=O)NS(=O)(=O)c1ccc(C)cc1 [Tolbutamide, reference compound]
- IC50 (NLRP3 inflammasome [1]; [8]): > 200 µM
- IC50 (NLRP3 inflammasome [2]; [9]): > 200 µM

Structure (SMILES): CC(=O)c1ccc(S(=O)(=O)NC(=O)NC2CCCCC2)cc1 [Acetohexamide, reference compound]
- IC50 (NLRP3 inflammasome [1]; [8]): > 200 µM
- IC50 (NLRP3 inflammasome [2]; [9]): > 200 µM

Structure (SMILES): Cc1oc(S(=O)(=O)NC(=O)Nc2c3c(cc4c2CCC4)CCC3)cc1C(C)(C)O [N-((1,2,3,5,6,7-hexahydro-s-indacen-4-yl)carbamoyl)-4-(2-hydroxypropan-2-yl)-5-methylfuran-2-sulfonamide]
- IC50 (NLRP3 inflammasome [1]; [3]): < 0.1 µM

Structure (SMILES): Cc1cc(Cl)cc(C(F)(F)F)c1NC(=O)NS(=O)(=O)c1cc(C(C)(C)O)co1 [N-((4-chloro-2-methyl-6-(trifluoromethyl)phenyl)carbamoyl)-4-(2-hydroxypropan-2-yl)furan-2-sulfonamide]
- IC50 (NLRP3 inflammasome [1]; [7]): > 10 µM

Structure (SMILES): CC(C)c1cc(Cl)cc(C(C)C)c1NC(=O)NS(=O)(=O)c1ccc2c(c1)CCCC2 [N-((4-chloro-2,6-diisopropylphenyl)carbamoyl)-5,6,7,8-tetrahydronaphthalene-2-sulfonamide]
- IC50 (NLRP3 inflammasome [1]; [3]): < 0.1 µM

Structure (SMILES): O=C(Nc1c2c(cc3c1CCC3)CCC2)NS(=O)(=O)c1ccc([N+](=O)[O-])cc1 [N-((1,2,3,5,6,7-hexahydro-s-indacen-4-yl)carbamoyl)-4-nitrobenzenesulfonamide]
- IC50 (NLRP3 inflammasome [1]; [3]): < 0.1 µM

Structure (SMILES): CC(C)n1ccc(S(=O)(=O)NC(=O)Nc2nc(C(C)(C)C)cc(C(C)(C)C)n2)n1 [N-((4,6-di-tert-butylpyrimidin-2-yl)carbamoyl)-1-isopropyl-1H-pyrazole-3-sulfonamide]
- IC50 (NLRP3 inflammasome [1]; [7]): > 10 µM

Structure (SMILES): CC(C)c1cc(Cl)cc(C(C)C)c1NC(=O)NS(=O)(=O)c1cnc2ccsc2c1 [N-((4-chloro-2,6-diisopropylphenyl)carbamoyl)thieno[3,2-b]pyridine-6-sulfonamide]
- IC50 (NLRP3 inflammasome [1]; [3]): < 1 µM

Structure (SMILES): Cc1cc(Cl)cc(C)c1NC(=O)NS(=O)(=O)c1cc(C(C)(C)O)co1 [N-((4-chloro-2,6-dimethylphenyl)carbamoyl)-4-(2-hydroxypropan-2-yl)furan-2-sulfonamide]
- IC50 (NLRP3 inflammasome [1]; [3]): < 10 µM

Structure (SMILES): CC(C)(O)c1coc(S(=O)(=O)NC(=O)Nc2cccc3c2OCC3)c1 [N-((2,3-dihydrobenzofuran-7-yl)carbamoyl)-4-(2-hydroxypropan-2-yl)furan-2-sulfonamide]
- IC50 (NLRP3 inflammasome [1]; [3]): < 50 µM

Structure (SMILES): CC(C)(O)c1coc(S(=O)(=O)NC(=O)Nc2c(C3CC3)cc(Cl)cc2C2CC2)c1 [N-((4-chloro-2,6-dicyclopropylphenyl)carbamoyl)-4-(2-hydroxypropan-2-yl)furan-2-sulfonamide]
- IC50 (NLRP3 inflammasome [1]; [3]): < 0.1 µM

Structure (SMILES): COc1ccc2cc(S(=O)(=O)NC(=O)Nc3c(C(C)C)cc(Cl)cc3C(C)C)ccc2c1 [N-((4-chloro-2,6-diisopropylphenyl)carbamoyl)-6-methoxynaphthalene-2-sulfonamide]
- IC50 (NLRP3 inflammasome [1]; [3]): < 0.1 µM
